Test [1] deals with T1, PTPN2 (Homo sapiens, UniProt P17706).
T1 construct: expressed in transfected cells; host or cells: 293T (293T.109 HiBiT-PTPN2 line; parental 293T WT from ATCC)
T1 sequence (P17706 1-415): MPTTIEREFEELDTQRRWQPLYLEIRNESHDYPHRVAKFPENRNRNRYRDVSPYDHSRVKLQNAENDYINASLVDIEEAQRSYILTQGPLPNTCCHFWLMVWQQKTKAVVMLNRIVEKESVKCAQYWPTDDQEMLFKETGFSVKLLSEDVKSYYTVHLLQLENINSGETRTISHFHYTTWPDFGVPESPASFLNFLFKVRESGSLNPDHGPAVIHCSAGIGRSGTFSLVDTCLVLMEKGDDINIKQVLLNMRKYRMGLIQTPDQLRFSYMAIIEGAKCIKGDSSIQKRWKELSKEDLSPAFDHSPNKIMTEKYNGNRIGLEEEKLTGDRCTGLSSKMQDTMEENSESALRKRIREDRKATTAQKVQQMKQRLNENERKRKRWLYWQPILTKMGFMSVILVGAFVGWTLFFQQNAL
The test can be described thus: HiBiT-Degradation 293T.109 PTPN2 (Nano-Glo HiBiT Lytic Assay). The following applies: 293T.109 (HiBiT-PTPN2) cells, 24.0 hours. Format: cell-based. In a few lines: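 293T cells ectopically expressing N-terminally HiBiT-tagged PTPN2 were seeded at 5000 cells/well. They were treated with an 11-point half-log titration from 10 μM, in duplicate, for 24 hours at 37° C., 5% CO2. Remaining tagged PTPN2 was quantified by lytic HiBiT luminescence against untreated and no-reagent controls.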
In general terms: With HiBiT, luminescence reflects the tagged protein that the partner subunit can reach.

Test [2] relates to PTPN2. Put plainly: HiBiT-Degradation B16F10.4 PTPN2. It counts as cell-based. The following applies: B16F10.4 cells, 24.0 hours.

SMILES strings stand for the structures.

Regarding `Cn1nc([C@H]2CCC(=O)NC2=O)c2ccc(N3CCC(CC(=O)Nc4ccc5c(F)c(N6CC(=O)NS6(=O)=O)c(O)cc5c4)CC3)cc21` [Example 164, 2-[1-[3-[(3R)-2,6-dioxo-3-piperidyl]-1-methyl-indazol-6-yl]-4-piperidyl]-N-[5-fluoro-7-hydroxy-6-(1,1,4-trioxo-1,2,5-thiadiazolidin-2-yl)-2-naphthyl]acetamide], the DC50 was 0.01 to 0.05 µM at PTPN2 [1] and 0.05 to 0.2 µM with PTPN2 [2].

In the case of `O=C1CCC(N2C(=O)c3cccc4c(C5CCN(CC(=O)N6CC(Oc7ccc8cc(O)c(N9CC(=O)NS9(=O)=O)c(F)c8c7)C6)CC5(F)F)ccc2c34)C(=O)N1` (stereo not drawn) [Example 165, 3-[6-[3,3-difluoro-1-[2-[3-[[8-fluoro-6-hydroxy-7-(1,1,4-trioxo-1,2,5-thiadiazolidin-2-yl)-2-naphthyl]oxy]azetidin-1-yl]-2-oxo-ethyl]-4-piperidyl]-2-oxo-benzo[cd]indol-1-yl]piperidine-2,6-dione], the DC50 lay in the range of 0.01 to 0.05 µM at PTPN2 [1] and 0.05 to 0.2 µM in the test with PTPN2 [2].

In the case of `CN(CCOc1ccc2cc(O)c(N3CC(=O)NS3(=O)=O)c(F)c2c1)C(=O)CNCCCc1ccc2c3c(cccc13)C(=O)N2C1CCC(=O)NC1=O` (stereo not drawn) [Example 166, N-(2-((7-(1,1-dioxido-4-oxo-1,2,5-thiadiazolidin-2-yl)-8-fluoro-6-hydroxynaphthalen-2-yl)oxy)ethyl)-2-((3-(1-(2,6-dioxopiperidin-3-yl)-2-oxo-1,2-dihydrobenzo[cd]indol-6-yl)propyl)amino)-N-methylacetamide], the DC50 at PTPN2 [1] lay in the range of 0.05 to 0.2 µM; with PTPN2 [2], 0.2 to 1 µM.

On to `Cn1nc(C2CCC(=O)NC2=O)c2ccc(N3CCC(CC(=O)Nc4ccc5c(F)c(N6CC(=O)NS6(=O)=O)c(O)cc5c4)CC3)cc21` (stereo not drawn) [Example 167, 2-[1-[3-(2,6-dioxo-3-piperidyl)-1-methyl-indazol-6-yl]-4-piperidyl]-N-[5-fluoro-7-hydroxy-6-(1,1,4-trioxo-1,2,5-thiadiazolidin-2-yl)-2-naphthyl]acetamide], for which the DC50 on PTPN2 [1] and in the test with PTPN2 [2] was 0.05 to 0.2 µM in each case.

As for `Cn1c(=O)n(C2CCC(=O)NC2=O)c2ccc(Nc3ccc(CC(=O)Nc4ccc5c(F)c(N6CC(=O)NS6(=O)=O)c(O)cc5c4)cn3)cc21` (stereo not drawn) [Example 168, N-(6-(1,1-dioxido-4-oxo-1,2,5-thiadiazolidin-2-yl)-5-fluoro-7-hydroxynaphthalen-2-yl)-2-(6-((1-(2,6-dioxopiperidin-3-yl)-3-methyl-2-oxo-2,3-dihydro-1H-benzo[d]imidazol-5-yl)amino)pyridin-3-yl)acetamide], the DC50 at PTPN2 [1] fell in the range of 0.05 to 0.2 µM; with PTPN2 [2], 0.01 to 0.05 µM.

With `Cc1cc(CC(=O)Nc2ccc3c(F)c(N4CC(=O)NS4(=O)=O)c(O)cc3c2)ccc1Nc1ccc2c(c1)n(C)c(=O)n2C1CCC(=O)NC1=O` (stereo not drawn) [Example 169, N-(6-(1,1-dioxido-4-oxo-1,2,5-thiadiazolidin-2-yl)-5-fluoro-7-hydroxynaphthalen-2-yl)-2-(4-((1-(2,6-dioxopiperidin-3-yl)-3-methyl-2-oxo-2,3-dihydro-1H-benzo[d]imidazol-5-yl)amino)-3-methylphenyl)acetamide], the DC50 at PTPN2 [1] and in the test on PTPN2 [2] was 0.01 to 0.05 µM each time.

Turning to `Cn1c(=O)n(C2CCC(=O)NC2=O)c2ccc(C3CCN(CCC(=O)Nc4ccc5c(F)c(N6CC(=O)NS6(=O)=O)c(O)cc5c4)CC3)cc21` (stereo not drawn) [Example 170, N-(6-(1,1-dioxido-4-oxo-1,2,5-thiadiazolidin-2-yl)-5-fluoro-7-hydroxynaphthalen-2-yl)-3-(4-(1-(2,6-dioxopiperidin-3-yl)-3-methyl-2-oxo-2,3-dihydro-1H-benzo[d]imidazol-5-yl)piperidin-1-yl)propanamide], the results for the DC50 on PTPN2 [1] and in the test with PTPN2 [2] were 0.01 to 0.05 µM and 0.05 to 0.2 µM, respectively.

On to `Cn1c(=O)n(C2CCC(=O)NC2=O)c2ccc(C3CCN(CC(=O)N4CC(Nc5ccc6cc(O)c(N7CC(=O)NS7(=O)=O)c(F)c6c5)C4)CC3(F)F)cc21` (stereo not drawn) [Example 171, 3-(5-(1-(2-(3-((7-(1,1-dioxido-4-oxo-1,2,5-thiadiazolidin-2-yl)-8-fluoro-6-hydroxynaphthalen-2-yl)amino)azetidin-1-yl)-2-oxoethyl)-3,3-difluoropiperidin-4-yl)-3-methyl-2-oxo-2,3-dihydro-1H-benzo[d]imidazol-1-yl)piperidine-2,6-dione], for which the DC50 on PTPN2 [1] and in the test with PTPN2 [2] was 0.05 to 0.2 µM each time.

With `Cn1c(=O)n(C2CCC(=O)NC2=O)c2ccc(-c3cnn(CC(=O)Nc4ccc5c(F)c(N6CC(=O)NS6(=O)=O)c(O)cc5c4)c3)cc21` (stereo not drawn) [Example 172, 2-[4-[1-(2,6-dioxo-3-piperidyl)-3-methyl-2-oxo-benzimidazol-5-yl]pyrazol-1-yl]-N-[5-fluoro-7-hydroxy-6-(1,1,4-trioxo-1,2,5-thiadiazolidin-2-yl)-2-naphthyl]acetamide], the DC50 at PTPN2 [1] and with PTPN2 [2] was 0.01 to 0.05 µM in each case.

With `Cn1c(=O)n(C2CCC(=O)NC2=O)c2ccc(-c3cnn(CCC(=O)Nc4ccc5c(F)c(N6CC(=O)NS6(=O)=O)c(O)cc5c4)c3)cc21` (stereo not drawn) [Example 173, N-(6-(1,1-dioxido-4-oxo-1,2,5-thiadiazolidin-2-yl)-5-fluoro-7-hydroxynaphthalen-2-yl)-3-(4-(1-(2,6-dioxopiperidin-3-yl)-3-methyl-2-oxo-2,3-dihydro-1H-benzo[d]imidazol-5-yl)-1H-pyrazol-1-yl)propanamide], the DC50 on PTPN2 [1] was in the range of 0.01 to 0.05 µM; in the test with PTPN2 [2], 0.05 to 0.2 µM.

Take `CCn1c(=O)n(C2CCC(=O)NC2=O)c2ccc(C3CCN(CC(=O)Nc4ccc5c(F)c(N6CC(=O)NS6(=O)=O)c(O)cc5c4)CC3)cc21` (stereo not drawn) [Example 174, N-(6-(1,1-dioxido-4-oxo-1,2,5-thiadiazolidin-2-yl)-5-fluoro-7-hydroxynaphthalen-2-yl)-2-(4-(1-(2,6-dioxopiperidin-3-yl)-3-ethyl-2-oxo-2,3-dihydro-1H-benzo[d]imidazol-5-yl)piperidin-1-yl)acetamide]: the figures for the DC50 on PTPN2 [1] and in the test with PTPN2 [2] were 0.01 to 0.05 µM and 0.05 to 0.2 µM, respectively.

`Cn1c(=O)n(C2CCC(=O)NC2=O)c2ccc(-c3ccc(CC(=O)Nc4ccc5c(F)c(N6CC(=O)NS6(=O)=O)c(O)cc5c4)nc3)cc21` (stereo not drawn) [Example 175, N-(6-(1,1-dioxido-4-oxo-1,2,5-thiadiazolidin-2-yl)-5-fluoro-7-hydroxynaphthalen-2-yl)-2-(5-(1-(2,6-dioxopiperidin-3-yl)-3-methyl-2-oxo-2,3-dihydro-1H-benzo[d]imidazol-5-yl)pyridin-2-yl)acetamide]: the DC50 on PTPN2 [1] is 0.01 to 0.05 µM; with PTPN2 [2] it was 0.05 to 0.2 µM.

Consider `Cn1c(=O)n(C2CCC(=O)NC2=O)c2ccc(C3CCN(CC4CC4C(=O)Nc4ccc5c(F)c(N6CC(=O)NS6(=O)=O)c(O)cc5c4)CC3)cc21` (stereo not drawn) [Example 176, N-(6-(1,1-dioxido-4-oxo-1,2,5-thiadiazolidin-2-yl)-5-fluoro-7-hydroxynaphthalen-2-yl)-2-((4-(1-(2,6-dioxopiperidin-3-yl)-3-methyl-2-oxo-2,3-dihydro-1H-benzo[d]imidazol-5-yl)piperidin-1-yl)methyl)cyclopropane-1-carboxamide], for which the DC50 lay in the range of 0.01 to 0.05 µM on PTPN2 [1] and 0.05 to 0.2 µM with PTPN2 [2].

Regarding `Cn1nc(C2CCC(=O)NC2=O)c2ccc(-c3ccc(CC(=O)Nc4ccc5c(F)c(N6CC(=O)NS6(=O)=O)c(O)cc5c4)cc3)cc21` (stereo not drawn) [Example 177, N-(6-(1,1-dioxido-4-oxo-1,2,5-thiadiazolidin-2-yl)-5-fluoro-7-hydroxynaphthalen-2-yl)-2-(4-(3-(2,6-dioxopiperidin-3-yl)-1-methyl-1H-indazol-6-yl)phenyl)acetamide], the DC50 on PTPN2 [1] fell in the range of 0.01 to 0.05 µM; in the test on PTPN2 [2], 0.05 to 0.2 µM.

As to `C[C@@H]1CC(c2ccc3c(c2)n(C)c(=O)n3C2CCC(=O)NC2=O)CCN1CC(=O)Nc1ccc2c(F)c(N3CC(=O)NS3(=O)=O)c(O)cc2c1` (stereo partly drawn) [Example 178, N-(6-(1,1-dioxido-4-oxo-1,2,5-thiadiazolidin-2-yl)-5-fluoro-7-hydroxynaphthalen-2-yl)-2-((2R)-4-(1-(2,6-dioxopiperidin-3-yl)-3-methyl-2-oxo-2,3-dihydro-1H-benzo[d]imidazol-5-yl)-2-methylpiperidin-1-yl)acetamide], the DC50 is 0.01 to 0.05 µM on PTPN2 [1] and 0.05 to 0.2 µM in the test on PTPN2 [2].

Regarding `Cn1nc(C2CCC(=O)NC2=O)c2ccc([C@H]3CC[C@@H](CC(=O)Nc4ccc5c(F)c(N6CC(=O)NS6(=O)=O)c(O)cc5c4)CC3)cc21` (stereo partly drawn) [Example 180, N-(6-(1,1-dioxido-4-oxo-1,2,5-thiadiazolidin-2-yl)-5-fluoro-7-hydroxynaphthalen-2-yl)-2-((cis)-4-(3-(2,6-dioxopiperidin-3-yl)-1-methyl-1H-indazol-6-yl)cyclohexyl)acetamide], the DC50 fell in the range of 0.01 to 0.05 µM on PTPN2 [1] and 0.05 to 0.2 µM in the test with PTPN2 [2].

Take `Cn1c(=O)n(C2CCC(=O)NC2=O)c2ccc(N3CCC(CCNC(=O)Nc4ccc5c(F)c(N6CC(=O)NS6(=O)=O)c(O)cc5c4)CC3)cc21` (stereo not drawn) [Example 181]: the DC50 is 0.01 to 0.05 µM at PTPN2 [1] and 0.05 to 0.2 µM in the test with PTPN2 [2].

For the molecule `Cn1c(=O)n(C2CCC(=O)NC2=O)c2ccc(C3CCN(CC(=O)Nc4ccc5c(F)c(N6CC(=O)NS6(=O)=O)c(O)cc5c4)CC3F)cc21` (stereo not drawn) [Example 182, 2-[4-[1-(2,6-dioxo-3-piperidyl)-3-methyl-2-oxo-benzimidazol-5-yl]-3-fluoro-1-piperidyl]-N-[5-fluoro-7-hydroxy-6-(1,1,4-trioxo-1,2,5-thiadiazolidin-2-yl)-2-naphthyl]acetamide], the DC50 at PTPN2 [1] and in the test on PTPN2 [2] was 0.01 to 0.05 µM each time.

A word on the DC50: it is the midpoint of the concentration-degradation curve.

The values above are taken from patent US20240383886A1, “Protein Tyrosine Phosphatase Degraders and Methods of Use Thereof” (CALICO LIFE SCIENCES LLC, priority 2019, published 2024).
